Test system: Micrococcus sedentarius NCIMB 40287
Test: Antibiotic sensitivities by the disc method
Format: cell-based
Details: disc amount as printed per antibiotic (1 unit, 5-30 μg)

Molecule	Antibiotic sensitivity
Neomycin	S
CN[C@H](CC(C)C)C(=O)N[C@H]1C(=O)N[C@@H](CC(N)=O)C(=O)N[C@H]2C(=O)N[C@H]3C(=O)N[C@H](C(=O)N[C@H](C(=O)O)c4cc(O)cc(O)c4-c4cc3ccc4O)[C@H](O)c3ccc(c(Cl)c3)Oc3cc2cc(c3O[C@@H]2O[C@H](CO)[C@@H](O)[C@H](O)[C@H]2O[C@H]2C[C@](C)(N)[C@H](O)[C@H](C)O2)Oc2ccc(cc2Cl)[C@H]1O [Vanomycin]	S

Reference: patent US5213978A, “Protease from Micrococcus sedentarius for degrading protein of human callus or corn tissue” (Scholl Plc, priority 1990, dated 1993)
